Test results reported in patent US11479537B2, “T-type calcium channel inhibitor” (KINKI UNIVERSITY, priority 2017, dated 2022).

Assays:
[1] = tested on: human T-type calcium channel; experiment: Whole-cell patch clamp measurement of T-type calcium channel inhibition (barium T-current); type: cell-based; conditions: for Ratio of IC50 value to IC50 value of 6-prenylnaringenin (%): IC50 as percentage of the IC50 of 6-prenylnaringenin, measured as in Example 1; for T-type calcium channel inhibitory action (in words): whole-cell patch clamp, in vitro; for Inhibition rate (%): EK293 cell forcibly expressing human T-type calcium channel, 6 cases
Protocol: Using a human kidney cell-derived cell line, an EK293 cell, in which a human T-type calcium channel was forcibly expressed, the inhibitory effect of 6-prenylnaringenin on the T-type calcium channel was measured by the whole cell patch clamp method.
In the whole-cell patch clamp method, the following solutions are used as an external solution and an internal solution, the holding potential is set to −80 mV, and the barium current was measured as an inward current flow upon a potential jump from −80 mV to −20 mV. Here, in order to eliminate the influence of the high threshold activated-calcium channel, a value obtained by subtracting the current at 150 ms after the start of stimulation from the peak current was used as a T-channel current (T-current) for data analysis.
External Solution Composition
Aqueous solution containing the following: • 97 mM N-methyl-D-glucamine (NMDG); • 10 mM BaCl2; • 10 mM 4-(2-hydroxyethyl)-1-piperazine ethanesulfonic acid (HEPES); • 40 mM tetraethylammonium chloride (TEA-Cl); and • 5 mM glucose • (pH 7.4). Internal Solution Composition
Aqueous solution containing the following: • 4 mM MgCl2; • 140 mM CsCl; • 10 mM HEPES; and • 5 mM glycol ether diamine tetraacetic acid (EGTA) • (pH 7.2).
The inhibitory effect of the compound of the present invention on the T-type calcium channel was measured in the same manner as in Example 1, except that the compound of the present invention was used instead of 6-prenylnaringenin.

[2] = tested on: PSNL-induced hyperalgesia; experiment: Partial sciatic nerve ligation (PSNL)-induced hyperalgesia, pain threshold by von Frey method; type: in vivo, ddY male mice; conditions: 10 to 30 mg/kg intraperitoneally, mice 7 days after PSNL, versus vehicle group after PSNL
Protocol: PSNL-induced hyperalgesia was performed using ddY male mice under inhaled isoflurane anesthesia by incising the skin on the femur of the mouse and exposing ⅓ to ½ of the exposed sciatic nerve was completely ligated with a 8-0 suture. […] The pain threshold was measured by the von Frey method.
Compounds-40, 41, 45 and 47 were suspended in 5% aqueous carboxymethylcellulose and administered intraperitoneally using mice after 7 days of PSNL treatment, which is considered to be a chronic phase in which hyperalgesia is stable, and Pain thresholds were measured every minute. As controls, a group to which a solvent was administered after sham operation and a group to which a solvent and 6-prenylnaringenin were administered after induction of hyperalgesia by PNSL were provided.

| Ratio of IC50 value to IC50 value of 6-prenylnaringenin (%) [1] | SMILES | T-type calcium channel inhibitory action (in words) [1] | Effect on PSNL-induced hyperalgesia (pain threshold) [2] | further results |
| --- | --- | --- | --- | --- |
| 7.7% | CCC(=CCc1c(O)cc2c(c1O)C(=O)CC(c1ccc(O)cc1)O2)CC (stereo not shown) [Compound-40, 6-(3-ethyl-pent-2-enyl)-5,7-dihydroxy-2-(4-hydroxy-phenyl)-chroman-4-one] | excellent T-type calcium channel inhibitory activity in vitro | significantly suppressed hyperalgesia |  |
| 2.3% | CCC(=CCc1c(O)cc2c(c1O)C(=O)CC(c1ccccc1O)O2)CC (stereo not shown) [Compound-45, 6-(3-ethyl-pent-2-enyl)-5,7-dihydroxy-2-(2-hydroxy-phenyl)-chroman-4-one] | excellent T-type calcium channel inhibitory activity in vitro | significantly suppressed hyperalgesia |  |
| 12.5% | CC(C)=CCc1c(O)cc2c(c1O)C(=O)CC(c1cccc(O)c1)O2 (stereo not shown) [Compound-34, 5,7-dihydroxy-2-(3-hydroxy-phenyl)-6-(3-methyl-but-2-enyl)-chroman-4-one] |  |  |  |
| 8.1% | O=C1CC(c2ccc(O)cc2)Oc2cc(O)c(CCC3CCCC3)c(O)c21 (stereo not shown) [Compound-47, 6-(2-cyclopentyl-ethyl)-5,7-dihydroxy-2-(4-hydroxy-phenyl)-chroman-4-one] | excellent T-type calcium channel inhibitory activity in vitro | significantly suppressed hyperalgesia |  |
| 12.2% | CC(C)=CCc1c(O)cc2c(c1O)C(=O)CC(c1ccccc1O)O2 (stereo not shown) [Compound-33, 5,7-dihydroxy-2-(2-hydroxy-phenyl)-6-(3-methyl-but-2-enyl)-chroman-4-one] |  |  |  |
|  | CC(C)=CCc1c(O)cc2c(c1O)C(=O)C[C@@H](c1ccc(O)cc1)O2 [6-prenylnaringenin, 6-Prenylnaringenin, reference compound] | excellent T-type calcium channel inhibitory action |  | IC50 ([1]; calculated by GraphPad Prism from the results of Example 1): 801 nM; Inhibition rate (%) ([1]; compound concentration 300 nM): 0%; Inhibition rate (%) ([1]; compound concentration 1000 nM): 82.7%; Inhibition rate (%) ([1]; compound concentration 3000 nM): 99.0% |
| 87.5% | CC(C)=CCc1c(O)cc2c(c1O)C(=O)CC(c1ccc(O)c(O)c1)O2 (stereo not shown) [Compound-36, 2-(3,4-dihydroxy-phenyl)-5,7-dihydroxy-6-(3-methyl-but-2-enyl)-chroman-4-one] |  |  |  |
| 26.6% | CC(C)=CCc1ccc2c(c1O)C(=O)CC(c1ccccc1O)O2 (stereo not shown) [Compound-43, 5-hydroxy-2-(2-hydroxy-phenyl)-6-(3-methyl-but-2-enyl)-chroman-4-one] |  |  |  |
| 72.3% | CC(C)=CCc1c(O)cc2c(c1O)C(=O)CC(c1c(O)cccc1O)O2 (stereo not shown) [Compound-42, 2-(2,6-dihydroxy-phenyl)-5,7-dihydroxy-6-(3-methyl-but-2-enyl)-chroman-4-one] |  |  |  |
| 15.0% | CCC(CC)CCc1c(O)cc2c(c1O)C(=O)CC(c1ccc(O)cc1)O2 (stereo not shown) [Compound-46, 6-(3-ethyl-pentyl)-5,7-dihydroxy-2-(4-hydroxy-phenyl)-chroman-4-one] |  |  |  |
| 54.8% | CCCC(=CCc1c(O)cc2c(c1O)C(=O)CC(c1ccc(O)cc1)O2)CCC (stereo not shown) [Compound-48, 5,7-dihydroxy-2-(4-hydroxy-phenyl)-6-(3-propyl-hex-2-enyl)-chroman-4-one] |  |  |  |
| 9.0% | O=C1CC(c2ccc(O)cc2)Oc2cc(O)c(CC=C3CCCC3)c(O)c21 (stereo not shown) [Compound-41, 6-(2-cyclopentylidene-ethyl)-5,7-dihydroxy-2-(4-hydroxy-phenyl)-chroman-4-one] | excellent T-type calcium channel inhibitory activity in vitro | significantly suppressed hyperalgesia |  |

| SMILES | Ratio of IC50 value to IC50 value of 6-prenylnaringenin (%) [1] | T-type calcium channel inhibitory action (in words) [1] | Effect on PSNL-induced hyperalgesia (pain threshold) [2] | further results |
| --- | --- | --- | --- | --- |
| CC(C)CCc1c(O)cc2c(c1O)C(=O)CC(c1ccc(O)cc1)O2 (stereo not shown) [Compound-39, 5,7-dihydroxy-2-(4-hydroxy-phenyl)-6-(3-methyl-butyl)-chroman-4-one] | 10.6% |  |  |  |
